Measurements: patent US8063225B2, “Tricyclic compound derivatives useful in the treatment of neoplastic diseases, inflammatory disorders and immunomodulatory disorders” (Chembridge Corporation, priority 2006, dated 2011)

Legend:
IGF1R tyrosine kinase = molecular target: T1, IGF1R tyrosine kinase (Homo sapiens, UniProt P08069); assay: IGF1R tyrosine kinase assay (Kinase-Glo ATP depletion or PT66/PT100 AlphaScreen); details: biochemical tyrosine kinase assay
T1 construct: 6×His- or GST-tagged kinase domain fragments of the corresponding RTKs expressed in baculovirus system; host or cells: baculovirus system
Outline: (§1)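 Inhibition measured on recombinant RTK kinase domains phosphorylating poly(Glu-Tyr) at 10 μM ATP, either by ATP depletion luminescence (37 °C, 60 min) or by PT66/PT100 AlphaScreen with biotinylated substrate (RT, 30 min plus 60 min bead step). For Alk, InsR and Jak2, enzyme titrated to ≤30% ATP consumption; IC50 from nonlinear regression.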

InsR = molecular target: T2, InsR (Homo sapiens, UniProt P06213); assay: Tyrosine kinase assay (Kinase-Glo or AlphaScreen), InsR; details: biochemical tyrosine kinase assay
T2 construct: 6×His- or GST-tagged kinase domain fragments of the corresponding RTKs expressed in baculovirus system; host or cells: baculovirus system
Outline: as §1

Alk = molecular target: T3, Alk (Homo sapiens, UniProt Q9UM73); assay: Tyrosine kinase assay (Kinase-Glo or AlphaScreen), Alk; details: biochemical tyrosine kinase assay
T3 construct: 6×His- or GST-tagged kinase domain fragments of the corresponding RTKs expressed in baculovirus system; host or cells: baculovirus system
Outline: as §1

H929 (multiple myeloma) = assay: Cell proliferation inhibition, Cell Titer-Glo, H929; format: cell-based; details: Homo sapiens, NCI-H929; cell proliferation assay, H929 cells
Outline: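 Cells seeded at 2500-5000 per well with serially diluted compound for typically 3 days. Viable cells measured by ATP luminescence (Cell Titer-Glo); IC50 from proliferation-inhibition curves.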

K562 = assay: Cell proliferation inhibition, Cell Titer-Glo, K562; format: cell-based; details: Homo sapiens; cell proliferation assay, K562 cells
Outline: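 Proliferation inhibition in human K562 cells was assessed in a standard 3-day assay. Cells (2500-5000 per well) in 384-well white, clear-bottomed plates received serial compound dilutions, then Cell Titer-Glo reagent was added per the manufacturer's protocol. Luminescence reflecting ATP content of metabolically active cells was counted in a multiwell reader, and IC50 curves were generated.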

T1 sequence (P08069 999-1274 limits assumed): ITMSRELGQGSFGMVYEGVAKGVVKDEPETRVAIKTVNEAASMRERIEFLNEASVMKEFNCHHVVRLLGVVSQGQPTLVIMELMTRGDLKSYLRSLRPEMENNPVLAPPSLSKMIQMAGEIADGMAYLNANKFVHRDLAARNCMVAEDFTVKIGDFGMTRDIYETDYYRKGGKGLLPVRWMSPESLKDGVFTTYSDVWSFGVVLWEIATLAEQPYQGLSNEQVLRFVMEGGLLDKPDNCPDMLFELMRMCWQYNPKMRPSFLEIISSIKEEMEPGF
T3 sequence (Q9UM73 1116-1392 limits assumed, species assumed): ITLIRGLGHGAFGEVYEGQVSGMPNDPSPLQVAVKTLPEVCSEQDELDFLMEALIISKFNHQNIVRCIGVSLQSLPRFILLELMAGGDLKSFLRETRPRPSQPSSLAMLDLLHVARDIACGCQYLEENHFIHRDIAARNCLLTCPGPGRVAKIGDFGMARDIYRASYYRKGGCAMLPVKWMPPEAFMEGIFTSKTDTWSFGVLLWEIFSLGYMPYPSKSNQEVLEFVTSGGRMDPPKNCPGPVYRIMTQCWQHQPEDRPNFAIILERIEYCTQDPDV
T2 sequence (P06213 1023-1298 limits assumed, species assumed): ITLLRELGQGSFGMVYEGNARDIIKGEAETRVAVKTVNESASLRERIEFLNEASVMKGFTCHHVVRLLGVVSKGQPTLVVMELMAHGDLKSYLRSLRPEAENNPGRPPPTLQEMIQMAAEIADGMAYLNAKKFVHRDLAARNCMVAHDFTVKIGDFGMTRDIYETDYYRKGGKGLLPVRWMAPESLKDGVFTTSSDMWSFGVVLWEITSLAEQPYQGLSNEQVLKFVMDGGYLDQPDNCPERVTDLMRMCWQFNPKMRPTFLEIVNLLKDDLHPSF

SMILES	IC50 (IGF1R tyrosine kinase)	IC50 (InsR)	IC50 (Alk)	IC50 (H929 (multiple myeloma))	IC50 (K562)
Cc1ccc(OCC(O)CNc2cc[nH]c(=O)c2-c2nc3cc4c(cc3[nH]2)C(=O)N(C2CCN(C)CC2)C4=O)c(C)c1 (centres unmarked) [compound 15]	< 0.5 µM	< 0.5 µM	5 to 15 µM	0.5 to 5 µM	0.5 to 5 µM
Cc1ccc2c(ccn2C[C@H](O)CNc2cc[nH]c(=O)c2-c2nc3cc4c(cc3[nH]2)C(=O)N(C2CCN(C)CC2)C4=O)c1 [compound 131]	5 to 15 µM	0.5 to 5 µM	5 to 15 µM	0.5 to 5 µM	5 to 15 µM
C[C@H](O)CN1C(=O)c2cc3nc(-c4c(NC[C@@H](O)c5cccc(Cl)c5)cc[nH]c4=O)[nH]c3cc2C1=O [compound 31]	5 to 15 µM	0.5 to 5 µM	> 15 µM	0.5 to 5 µM	5 to 15 µM
CN1CCC(N2C(=O)c3cc4nc(-c5c(NC[C@@H](O)COc6ccc7ccccc7c6)cc[nH]c5=O)[nH]c4cc3C2=O)CC1 [compound 88]	0.5 to 5 µM	0.5 to 5 µM	0.5 to 5 µM	5 to 15 µM	5 to 15 µM
Cc1ccc(OC[C@H](O)CNc2cc[nH]c(=O)c2-c2nc3c(C)c4c(cc3[nH]2)C(=O)N(C2CCN(C)CC2)C4)c(C)c1 [compound 139]	< 0.5 µM	< 0.5 µM	0.5 to 5 µM	0.5 to 5 µM	> 15 µM
Cc1ccc(OCC(O)CNc2cc[nH]c(=O)c2-c2nc3cc4c(cc3[nH]2)C(=O)N(CC2CCN(CCO)CC2)C4=O)c(C)c1 (centres unmarked) [compound 37]	> 15 µM	< 0.5 µM	5 to 15 µM	0.5 to 5 µM	> 15 µM
Cc1cc(C)c(OC[C@H](O)CNc2cc[nH]c(=O)c2-c2nc3cc4c(cc3[nH]2)C(=O)N(C2CCN(C)CC2)C4=O)c(CS(C)(=O)=O)c1 [compound 84]	0.5 to 5 µM	0.5 to 5 µM	0.5 to 5 µM	0.5 to 5 µM	> 15 µM
Cc1ccc(OC[C@H](O)CNc2cc[nH]c(=O)c2-c2nc3cc4c(cc3[nH]2)CN(C2CCN(C)CC2)C4=O)c(C)c1 [compound 130]	< 0.5 µM	< 0.5 µM	0.5 to 5 µM	0.5 to 5 µM	> 15 µM
Cc1ccc(OC[C@@H](O)CNc2cc[nH]c(=O)c2-c2nc3cc4c(cc3[nH]2)C(=O)N([C@@H]2CCN(C)C2)C4=O)c(C)c1 [compound 107]	< 0.5 µM	< 0.5 µM	0.5 to 5 µM	5 to 15 µM	> 15 µM
CCN1CCC(N2Cc3cc4nc(-c5c(NC[C@@H](O)COc6ccc(C)cc6C)cc[nH]c5=O)[nH]c4cc3C2=O)CC1 [compound 144]	< 0.5 µM	0.5 to 5 µM	< 0.5 µM	0.5 to 5 µM	> 15 µM
CN1CCC(N2C(=O)c3cc4nc(-c5c(NC[C@@H](O)COc6cccc(-c7ccccc7)c6)cc[nH]c5=O)[nH]c4cc3C2=O)CC1 [compound 89]	0.5 to 5 µM	0.5 to 5 µM	0.5 to 5 µM	5 to 15 µM	5 to 15 µM
Cc1ccc(OC[C@H](O)CNc2cc[nH]c(=O)c2-c2nc3cc4c(c(C)c3[nH]2)CN(C2CCN(C)CC2)C4=O)c(C)c1 [compound 132]	< 0.5 µM	< 0.5 µM	0.5 to 5 µM	< 0.5 µM	> 15 µM
CN1CCC(N2C(=O)c3cc4nc(-c5c(NC[C@@H](O)c6cccc(Cl)c6)cc[nH]c5=O)[nH]c4cc3C2=O)CC1 [compound 1]	< 0.5 µM	< 0.5 µM	0.5 to 5 µM	0.5 to 5 µM	5 to 15 µM
CCc1cc(C)ccc1OC[C@H](O)CNc1cc[nH]c(=O)c1-c1nc2cc3c(cc2[nH]1)CN(C1CCN(C)CC1)C3=O [compound 141]	< 0.5 µM	< 0.5 µM	0.5 to 5 µM	< 0.5 µM	> 15 µM
CN1CCC(N2C(=O)c3cc4nc(-c5c(NC[C@@H](O)COc6cccc7ccccc67)cc[nH]c5=O)[nH]c4cc3C2=O)CC1 [compound 87]	< 0.5 µM	< 0.5 µM	0.5 to 5 µM	5 to 15 µM	5 to 15 µM
Cc1ccc(OC[C@H](O)CNc2cc[nH]c(=O)c2-c2nc3c(C)c4c(cc3[nH]2)C(=O)N(C2CCN(C)CC2)C4=O)c(C)c1 [compound 110]	< 0.5 µM	< 0.5 µM	0.5 to 5 µM	5 to 15 µM	5 to 15 µM
O=C1c2cc3nc(-c4c(NC[C@@H](O)c5cccc(Cl)c5)cc[nH]c4=O)[nH]c3cc2C(=O)N1[C@H]1CN2CCC1CC2 [compound 34]	< 0.5 µM	0.5 to 5 µM	0.5 to 5 µM	5 to 15 µM	> 15 µM
Cc1c(Cl)cccc1OC[C@H](O)CNc1cc[nH]c(=O)c1-c1nc2cc3c(cc2[nH]1)C(=O)N(C1CCN(C)CC1)C3=O [compound 94]	< 0.5 µM	< 0.5 µM	0.5 to 5 µM	5 to 15 µM	> 15 µM
Cc1ncsc1CCN1C(=O)c2cc3nc(-c4c(NC[C@@H](O)c5cccc(Cl)c5)cc[nH]c4=O)[nH]c3cc2C1=O [compound 32]	5 to 15 µM	> 15 µM	> 15 µM	5 to 15 µM	> 15 µM
CN1CCC(N2C(=O)c3cc4nc(-c5c(NC[C@@H](O)COc6c(F)ccc(Cl)c6F)cc[nH]c5=O)[nH]c4cc3C2=O)CC1 [compound 95]	< 0.5 µM	< 0.5 µM	0.5 to 5 µM	5 to 15 µM	5 to 15 µM
CN1CCC(N2C(=O)c3cc4nc(-c5c(NC[C@@H](O)COc6cccc(C(F)(F)F)c6)cc[nH]c5=O)[nH]c4cc3C2=O)CC1 [compound 97]	0.5 to 5 µM	0.5 to 5 µM	5 to 15 µM	5 to 15 µM	> 15 µM
Cc1cc(C)c(OC[C@H](O)CNc2cc[nH]c(=O)c2-c2nc3cc4c(cc3[nH]2)C(=O)N(C2CCN(C)CC2)C4=O)c(C)c1 [compound 98]	< 0.5 µM	< 0.5 µM	0.5 to 5 µM	5 to 15 µM	> 15 µM
CN1CCC(N2C(=O)c3cc4nc(-c5c(NC[C@@H](O)COc6cccc(OC(F)(F)C(F)F)c6)cc[nH]c5=O)[nH]c4cc3C2=O)CC1 [compound 91]	5 to 15 µM	0.5 to 5 µM	0.5 to 5 µM	0.5 to 5 µM	> 15 µM
Cc1ccc(OC[C@H](O)CNc2cc[nH]c(=O)c2-c2nc3c(C)c4c(cc3[nH]2)CN(C2CCN(C)CC2)C4=O)c(C)c1 [compound 140]	< 0.5 µM	< 0.5 µM	0.5 to 5 µM	< 0.5 µM	5 to 15 µM
Cc1ccc(OC[C@H](O)CNc2cc[nH]c(=O)c2-c2nc3cc4c(cc3[nH]2)C(=O)N(C2CCN(C)CC2)C4=O)c(C)c1 [compound 59]	< 0.5 µM	< 0.5 µM	0.5 to 5 µM	0.5 to 5 µM	5 to 15 µM
